Source: patent US11491120B2, “Pharmacological prophylactics against stress-induced affective disorders in females” (The Trustees of Columbia University in the City of New York, priority 2017, dated 2022)
“Also recorded” adds a separate entry of the source.

Tested on: female 129S6/SvEv mice
Assay: Contextual fear conditioning (CFC), 3-shock, freezing in training and context re-exposure
Settings: for Freezing during CFC re-exposure vs saline: vehicle condition; for Freezing during re-exposure to the CFC training context vs saline: single i.p. injection 1 week before 3-shock CFC, all doses; for Freezing during re-exposure to the CFC training context vs saline / Attenuation of learned fear: female mice; for Attenuation of learned fear: single injection 1 week before stressor
[1] = Contextual Fear Conditioning Training, Dunnett test Sal vs. drug (10), 1 week prophylactic drug
[2] = Contextual Fear Conditioning Training, Dunnett test Sal vs. drug (30), 1 week prophylactic drug
[3] = Ovariectomized cohort, 1 week prophylactic drug, Contextual Fear Conditioning Re-exposure, FIG. 10B, Sham mice, K (10), (2R,6R)-HNK (0.025)
[4] = Ovariectomized cohort, 1 week prophylactic drug, Contextual Fear Conditioning Re-exposure, FIG. 10C, Sham mice, K (10), (2R,6R)-HNK (0.025)
[5] = Ovariectomized, E2/P4 replacement, 1 week prophylactic drug, Contextual Fear Conditioning Re-exposure, FIG. 10E, Vehicle (hormone) mice, K (10), (2R,6R)-HNK (0.025)
[6] = Ovariectomized, E2/P4 replacement, 1 week prophylactic drug, Contextual Fear Conditioning Re-exposure, FIG. 10F, Vehicle (hormone) mice, K (10), (2R,6R)-HNK (0.025)
[7] = Ovariectomized, E2/P4 replacement, 1 week prophylactic drug, Contextual Fear Conditioning Training, FIG. 10D, Vehicle vs E2/P4, same drug, K (10), (2R,6R)-HNK (0.025)
[8] = Sal vs. K (2.5), Fisher's PLSD, 3 day prophylactic drug/Contextual Fear Conditioning Training
[9] = Sal vs. K (10), Fisher's PLSD, 1 week prophylactic drug, learned helplessness stress, Contextual Fear Conditioning Re-exposure
[10] = Sal vs. K (10), Fisher's PLSD, 3 day prophylactic drug/Contextual Fear Conditioning Training
[11] = Sal vs. K (10), Fisher's PLSD, Stress, antidepressant drug/Contextual Fear Conditioning Training

CNC1(c2ccccc2Cl)CCCCC1=O (racemic) [(R,S)-ketamine, (RS)-2-(2-chlorophenyl)-2-(methylamino)cyclohexanone]
p, Freezing (min 5) (Contextual Fear Conditioning Training, Dunnett test Sal vs. drug (2.5), 1 week prophylactic drug): 0.2720 | p, Freezing (min 1-5) [1]: >0.9999 | p, Freezing (min 4) [1]: 0.9996 | p, Freezing (min 5) [1]: 0.9996 | p, Freezing (min 1-5) [2]: 0.9998 | p, Freezing (min 4) [2]: >0.9999 | p, Freezing (min 5) [2]: 0.9997 | p, Freezing (min 1-5), Fisher's PLSD, OVX Sal vs OVX drug (Ovariectomized cohort, 1 week prophylactic drug, Contextual Fear Conditioning Re-exposure, FIG. 10B, OVX mice, K (10), (2R,6R)-HNK (0.025)): 0.1532 | * (significance), Freezing (min 1-5), Fisher's PLSD, Sham Sal vs Sham drug [3]: * (* p<0.05) | p, Freezing (min 1-5), Fisher's PLSD, Sham Sal vs Sham drug [3]: 0.0290 | p, Freezing (min 1-5), Fisher's PLSD, Sham drug vs OVX drug (Ovariectomized cohort, 1 week prophylactic drug, Contextual Fear Conditioning Re-exposure, FIG. 10B, Sham vs OVX, same drug, K (10), (2R,6R)-HNK (0.025)): 0.7813 | p, Freezing Average (min 1-5), Fisher's PLSD, OVX Sal vs OVX drug (Ovariectomized cohort, 1 week prophylactic drug, Contextual Fear Conditioning Re-exposure, FIG. 10C, OVX mice, K (10), (2R,6R)-HNK (0.025)): 0.1532 | * (significance), Freezing Average (min 1-5), Fisher's PLSD, Sham Sal vs Sham drug [4]: * (* p<0.05) | p, Freezing Average (min 1-5), Fisher's PLSD, Sham Sal vs Sham drug [4]: 0.0290 | p, Freezing Average (min 1-5), Fisher's PLSD, Sham drug vs OVX drug (Ovariectomized cohort, 1 week prophylactic drug, Contextual Fear Conditioning Re-exposure, FIG. 10C, Sham vs OVX, same drug, K (10), (2R,6R)-HNK (0.025)): 0.7813 | p, Freezing (min 1-5), Fisher's PLSD, E2/P4 Sal vs E2/P4 drug (Ovariectomized, E2/P4 replacement, 1 week prophylactic drug, Contextual Fear Conditioning Re-exposure, FIG. 10E, E2/P4 mice, K (10), (2R,6R)-HNK (0.025)): 0.7946 | * (significance), Freezing (min 1-5), Fisher's PLSD, Vehicle Sal vs Vehicle drug [5]: ** (** p<0.01) | p, Freezing (min 1-5), Fisher's PLSD, Vehicle Sal vs Vehicle drug [5]: 0.0077 | p, Freezing (min 1-5), Fisher's PLSD, Vehicle drug vs E2/P4 drug (Ovariectomized, E2/P4 replacement, 1 week prophylactic drug, Contextual Fear Conditioning Re-exposure, FIG. 10E, Vehicle vs E2/P4, same drug, K (10), (2R,6R)-HNK (0.025)): 0.2095 | p, Freezing Average (min 1-5), Fisher's PLSD, E2/P4 Sal vs E2/P4 drug (Ovariectomized, E2/P4 replacement, 1 week prophylactic drug, Contextual Fear Conditioning Re-exposure, FIG. 10F, E2/P4 mice, K (10), (2R,6R)-HNK (0.025)): 0.7946 | * (significance), Freezing Average (min 1-5), Fisher's PLSD, Vehicle Sal vs Vehicle drug [6]: ** (** p<0.01) | p, Freezing Average (min 1-5), Fisher's PLSD, Vehicle Sal vs Vehicle drug [6]: 0.0077 | p, Freezing Average (min 1-5), Fisher's PLSD, Vehicle drug vs E2/P4 drug (Ovariectomized, E2/P4 replacement, 1 week prophylactic drug, Contextual Fear Conditioning Re-exposure, FIG. 10F, Vehicle vs E2/P4, same drug, K (10), (2R,6R)-HNK (0.025)): 0.2095 | p, Freezing (min 1-5), Fisher's PLSD, E2/P4 Sal vs E2/P4 drug (Ovariectomized, E2/P4 replacement, 1 week prophylactic drug, Contextual Fear Conditioning Training, FIG. 10D, E2/P4 mice, K (10), (2R,6R)-HNK (0.025)): 0.5725 | p, Freezing (min 1-5), Fisher's PLSD, Vehicle Sal vs Vehicle drug (Ovariectomized, E2/P4 replacement, 1 week prophylactic drug, Contextual Fear Conditioning Training, FIG. 10D, Vehicle (hormone) mice, K (10), (2R,6R)-HNK (0.025)): 0.1466 | * (significance), Freezing (min 1-5), Fisher's PLSD, Vehicle drug vs E2/P4 drug [7]: ** (** p<0.01) | p, Freezing (min 1-5), Fisher's PLSD, Vehicle drug vs E2/P4 drug [7]: 0.0004 | *, Freezing (min 5) [8]: * (* p<0.05) | p, Freezing (min 5) [8]: 0.0143 | *, Freezing (min 1) [9]: * (* p<0.05) | p, Freezing (min 1) [9]: 0.0166 | *, Freezing (min 5) [10]: ** (** p<0.01) | p, Freezing (min 5) [10]: 0.0078 | p, Freezing (min 1-5) [11]: 0.1932 | p, Freezing (min 5) [11]: 0.2639 | p, Freezing (min 5) (Sal vs. K (30), Fisher's PLSD, 3 day prophylactic drug/Contextual Fear Conditioning Training): 0.0606 | Freezing during CFC Training, E2/P4+drug vs vehicle+drug (ovariectomized mice, hormone replacement): froze significantly more | Freezing during CFC re-exposure vs saline (ovariectomized mice): displayed altered freezing | Freezing during CFC re-exposure vs saline (ovariectomized mice, listed as (R, S)-ketamine): froze significantly less than saline mice | Freezing during re-exposure to the CFC training context vs saline (listed as (R, S)-ketamine): did not alter fear encoding or fear retrieval; also recorded: did not alter overall freezing | Freezing during re-exposure to the CFC training context vs saline (listed as Racemic ketamine): do not significantly alter freezing | Attenuation of learned fear: do not attenuate learned fear | Attenuation of learned fear (listed as (R, S)-ketamine): do not attenuate learned fear; also recorded: do not alter learned fear
